Source: US7897389B2, “Direct differentiation method for making cardiomyocytes from human embryonic stem cells” (Geron Corporation, priority 2008, dated 2011)

Legend:
[1] = test system: Embryoid bodies from the H1 or H9 line
Experimental: Embryoid bodies from the H1 or H9 line were treated at differentiation day 1-4, 4-6 or 6-8 with 5-aza-deoxy-cytidine, a cytosine analog that affects DNA methylation. Cells were harvested at day 15, and analyzed for cardiac MHC by real-time RT-PCR.
Other reagents examined for an ability to induce cardiomyocyte differentiation included dimethyl sulfoxide (DMSO) and all-trans retinoic acid (RA).

[2] = test system: hES-derived cardiomyocytes; assay: Chronotropic effects of cardioactive drugs on beating hES-derived cardiomyocytes; assay type: cell-based, human; settings: for chronotropic effect on beating rate: FIG. 2 Panels B-E
Experimental: The function of hES-derived cardiomyocytes was tested by determining whether the cardiomyocytes respond appropriately to the chronotropic effects of cardioactive drugs.
When cells were treated with 10^−5 M diltiazem, 100% of the beating areas stopped contraction. […] Thus, the hES cell derived cells respond to cardioactive drugs in a manner appropriate for cells of the cardiomyocyte lineage.

`Nc1ncn([C@H]2C[C@H](O)[C@@H](CO)O2)c(=O)n1` [5-aza-deoxy-cytidine] was tested, and the “proportion of beating areas in the culture” value ([1]; 1 to 10 μM at day 6-8) was “increased” and the “expression of cardiac α-MHC” value ([1]; 1 to 10 μM at day 6-8, harvested day 15, real-time RT-PCR) was “significantly increased”.

`C[S+](C)[O-]` [DMSO, dimethyl sulfoxide] was tested, and the “beating areas vs non-treated cultures” value ([1]; 0.5% from days 0-4) was “fewer beating areas”, the beating cells ([1]; 0.8% or 1%) was “absent” and the “α-MHC expression compared with untreated cultures” value ([1]; DMSO treatment) was “significant reduction”.

For `CC1=C(/C=C/C(C)=C/C=C/C(C)=C/C(=O)O)C(C)(C)CCC1` [RA, all-trans retinoic acid], the “toxicity to the cells” value [1] was “toxic” and the “beating cells compared with untreated cultures” value ([1]; 10^−9 to 10^−5 M, days 4-8, 8-15, or 4-15) was “no increase in beating cells”.

In the case of `COc1ccc([C@@H]2Sc3ccccc3N(CCN(C)C)C(=O)[C@@H]2OC(C)=O)cc1` [diltiazem], the beating rate ([2]; FIG. 2 Panel A, concentration-dependent) is reported as “inhibited”.

`CC(C)NCC(O)c1ccc(O)c(O)c1` (stereo not shown) [isoprenaline] was tested, and the “chronotropic effect on beating rate” value [2] was “positive chronotropic effects”.

`CNC[C@H](O)c1cccc(O)c1` [phenylephrine] was tested, and the “chronotropic effect on beating rate” value [2] was “positive chronotropic effects”.
